Laboratory results reported in patent US9669061B2, “Medicinal agent exhibiting antiprotozoal activity to Trichomonas vaginalis in an in-vitro model system” (Viktor Ivanovich Roschin, priority 2008, dated 2017).
≈ marks a conversion by molar mass, not a printed value.

Tested on: T. vaginalis isolates
Assay: Sensitivity of T. vaginalis isolates to metronidazole (serial dilution MIC by immobilisation; lysis method for amastigote forms)
Type: cell-based, Trichomonas vaginalis
Settings: for MIC: Trichomonas vaginalis
Experimental: Then, the sensitivity of T. vaginalis to metronidazole was examined in vitro, using as an indicator the immobilisation of the trichomonad by the test-substance. For the sensitivity test, 90% or more of the protozoa were required to be motile. The sensitivity of T. vaginalis isolates to metronidazole was determined using serials dilution and the minimum inhibitory concentration (MIC) method. 4.0 ml of the medium was placed in test tubes and mixed with 0.5 ml of solution various concentrations of metronidazole—from 0.25 to 1000 μg/ml, or 1 mg/ml).
Then, 0.5 ml of pathogenic culture containing a known concentration of T. vaginalis (cells/ml) was added to the test tubes. Media without the test substance was used as a control. Vaseline was added to the surface (0.5 mm layer) of the tubes to create anaerobic conditions necessary for the growth of T.vaginalis. The test tubes were then placed in a thermostat at 37° C. Results were recorded 48 and 96 hours after inoculation.
The sensitivity of trichomonad to metronidazole was determined based on the minimum inhibitory concentration (MIC), which causes immobilisation of all cells of T.vaginalis. The strains were considered as resistant to metronidazole, when immobilisation occurred at concentration of metronidazole exceeding 15 μg/ml.
The MIC method cannot be used when atypical, amastigote (lacking flagella) T. vaginalis are present. Instead, a common in vitro lysis method for determining the sensitivity to antiprotozoal medications was used. Lysis of all trichomonas is an indicator of the efficacy of the test substance. Nutrient media containing trichomonas without metronidazole was used as a control. Metronidazole, at concentrations of 10, 15, 25, and 50 μg/ml was used in this experiment. Strains that lysed at a concentration of 25 μg/ml were considered resistant to metronidazole.

`Cc1ncc([N+](=O)[O-])n1CCO` [Metronidazole, metronidazole] was tested. Which MIC (isolate 1 (actively mobile)) did it give?
The MIC was 15 µg/mL (≈ 87.6 µM).

And the MIC (isolate 2 (actively mobile))?
The MIC was 15 µg/mL (≈ 87.6 µM).

What about the MIC (isolate 3 (actively mobile)) of the same compound?
The MIC was 25 µg/mL (≈ 146 µM).

What about the MIC (isolate 4 (amastigote)) of the same compound?
The MIC was 50 µg/mL (≈ 292 µM).

And the MIC (isolate 5 (amastigote))?
The MIC was 25 µg/mL (≈ 146 µM).

What about the MIC (isolate 6 (amastigote)) of the same compound?
Its MIC is 50 µg/mL (≈ 292 µM).

And the MIC (isolate 7 (amastigote))?
Its MIC is 25 µg/mL (≈ 146 µM).

What about the MIC (isolate 8 (amastigote)) of the same compound?
Its MIC is 25 µg/mL (≈ 146 µM).

And the MIC (isolate 9 (amastigote))?
Its MIC is over 50 µg/mL.

And the MIC (isolate 10 (amastigote))?
The MIC was 50 µg/mL (≈ 292 µM).

And the MIC (strains 4, 6, 9 and 10)?
The MIC was over 25 µg/mL.

What about the “number of isolates (out of 10) on which metronidazole had an effect” value (metronidazole 15 μg/ml) of the same compound?
The value was 2.

What about the “resistance of isolates to metronidazole” value (the rest of the isolates (not affected at 15 μg/ml)) of the same compound?
The value was “resistant”.
